From patent publication US20200055891A1, “NOVEL PHOSPHOTRIAZOLE MRNA 5'-END CAP ANALOGS, COMPOSITION COMPRISING THE SAME, RNA MOLECULE INCORPORATING THE SAME, USES THEREOF AND METHOD OF SYNTHESIZING RNA MOLECULE, PROTEIN OR PEPTIDE” (UNIWERSYTET WARSZAWSKI, priority 2016, published 2020)
Counter-ions that a name gives are not always drawn.

Experiments:
[1] = Hydrolysis in D2O seen in NMR spectra; type: physicochemical; conditions: dissolved in D2O just before NMR measurement; given if higher than 5%
Method: Some cap analogues hydrolyzed in D2O gradually. Although pure compounds (see HPLC profiles, Supporting Information 2) were dissolved in D2O just before measurements, the spectra indicated some level of hydrolysis. % of hydrolysis is provided along with compound characterization data, if higher than 5%.

[2] = test system: Rabbit Reticulocyte Lysate; experiment: Translation efficiency of capped firefly luciferase mRNA in Rabbit Reticulocyte Lysate System; type: biochemical; conditions: relative, m^7GpppG = 1
Method: The reaction was quenched by addition of 2 μl of 0.5 M EDTA pH 8.0 and purified with NucleoSpin RNA Clean-up XS kit (Macherey-Nagel) to afford luciferase-coding RNA strands capped with appropriate cap analogue.
For each capped luciferase-coding RNA four diluted solutions were prepared—3.0 ng/μl, 1.5 ng/μl, 0.75 ng/μl, 0.375 ng/μl. Translation studies were performed using Rabbit Reticulocyte Lysate System (Promega). 9 μl of a mixture containing Rabbit Reticulocyte Lysate (4 μl), Amino Acid Mixture Minus Leucine (0.05 μl of 1 mM solution), Amino Acid Mixture Minus Methionine (0.05 μl of 1 mM solution), potassium acetate (1.9 μl of 1 M solution), MgCl2 (0.4 μl of 25 mM solution) and 2.1 μl of water was incubated at 30° C. for 1 h after which 1 μl of appropriate luciferase-coding RNA solution was added and incubation of the reaction was continued at 37° C. for another hour. The reaction was stopped by freezing in liquid nitrogen.
Translation efficiency was determined using Luciferase Reporter System (Promega). The samples were defrosted just before the experiment. To every sample 50 μl of Luciferase Assay Reagent was added just before measurement of luminescence on Synergy H1 Microplate Reader (Bio Tek). The measurement were performed for every four samples independently due to low stability of luminescence signal. The results are presented on. FIG. 4 as proportions between regression coefficients of linear relationships between capped luciferase-coding RNA concentration in translation reaction (300 pg/μl, 150 pg/μl, 75 pg/μl, 37.5 pg/μl) and corresponding luminescence signal.

SP6 RNA polymerase = target: T1, SP6 RNA polymerase (Enterobacteria phage SP6, UniProt P06221); experiment: Capping efficiency: incorporation of cap analogues at the 5′ end of short transcripts by in vitro transcription; type: biochemical; conditions: 1.25 mM cap analogue, 0.125 mM GTP
T1 construct: purchased New England BioLabs
T1 sequence (P06221 1-874): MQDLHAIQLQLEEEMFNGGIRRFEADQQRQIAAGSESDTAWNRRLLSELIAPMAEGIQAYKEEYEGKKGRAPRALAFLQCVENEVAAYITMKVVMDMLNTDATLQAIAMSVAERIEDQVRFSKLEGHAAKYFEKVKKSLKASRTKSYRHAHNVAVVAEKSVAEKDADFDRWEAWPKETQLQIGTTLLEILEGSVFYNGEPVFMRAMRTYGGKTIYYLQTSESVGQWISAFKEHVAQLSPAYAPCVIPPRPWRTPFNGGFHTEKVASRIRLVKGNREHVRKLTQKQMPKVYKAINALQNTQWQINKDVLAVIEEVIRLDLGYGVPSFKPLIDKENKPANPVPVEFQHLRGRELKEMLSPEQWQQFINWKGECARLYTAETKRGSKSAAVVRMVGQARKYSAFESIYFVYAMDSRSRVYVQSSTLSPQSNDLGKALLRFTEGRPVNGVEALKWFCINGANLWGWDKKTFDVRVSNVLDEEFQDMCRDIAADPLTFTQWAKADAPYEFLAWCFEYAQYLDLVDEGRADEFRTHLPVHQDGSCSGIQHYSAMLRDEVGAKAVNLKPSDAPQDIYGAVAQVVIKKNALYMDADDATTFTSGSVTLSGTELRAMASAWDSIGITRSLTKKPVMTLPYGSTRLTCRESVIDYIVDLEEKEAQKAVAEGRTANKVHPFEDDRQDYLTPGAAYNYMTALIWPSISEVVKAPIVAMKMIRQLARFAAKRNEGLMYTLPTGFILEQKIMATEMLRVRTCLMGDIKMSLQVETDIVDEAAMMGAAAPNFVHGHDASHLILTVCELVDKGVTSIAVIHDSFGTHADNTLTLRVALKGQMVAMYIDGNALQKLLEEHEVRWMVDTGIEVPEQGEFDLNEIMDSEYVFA
Method: Prior to in vitro transcription annealing of a template was performed. DNA1 (SEQ ID NO: 1) and DNA2 (SEQ ID NO: 2) (20 μM each) were incubated in the presence of 4 mM Tris-HCl pH 8.0, 15 mM NaCl and 0.1 mM EDTA at 95° C. for 2 min and then at room temperature for 30 min. After 10-fold dilution the mixture was directly used for in vitro transcription.
The reaction was quenched by addition of 2 μl of 0.5 M EDTA pH 8.0 and purified with RNA Clean&Concentrator-5 kit (Zymo Research) to afford capped RNA1 (SEQ ID NO: 4) strands.
To reduce heterogeneity, each capped RNA1 (11.42 ng/μl, ca. 1 μM) was incubated in presence of 50 mM Tris-HCl pH 8.0, 50 mM MgCl2, RiboLock RNase Inhibitor (ThermoFisher Scientific) (2.0 U/μl) and DNA3 (SEQ ID NO: 3) (1 μM) at 37° C. for 1 h to afford RNA2 (SEQ ID NO: 5).^44 The reaction was stopped by freezing in liquid nitrogen and directly analyzed by PAGE (FIG. 3).
Relative bands intensity was determined using CLIQS v1.0 program.

[3] = Stability studies in buffers pH 3-9, RP HPLC; type: physicochemical; conditions: room temperature; for % of remaining cap, Bufor pH 7, 4 h / % of remaining cap, Bufor pH 7, 24 h: 0.1 M HEPES pH 7.0, 20 μM; for % of remaining cap, Bufor pH 5, 4 h / % of remaining cap, Bufor pH 5, 24 h: 0.1 M acetate buffer pH 5.0, 20 μM; for % of remaining cap, Bufor pH 9, 4 h / % of remaining cap, Bufor pH 9, 24 h: 0.1 M borate buffer pH 9.0, 20 μM; for % of remaining cap, Bufor pH 3, 4 h / % of remaining cap, Bufor pH 3, 24 h: 0.1 M formate buffer pH 3.0, 20 μM
Method: Analogues m2^7,2′-OGppp-triazole-C2H4NHppG, m2^7,2′-OGppp-triazole-C2H4OppG, m2^7,2′-OGppp-triazole-C2H4OpG, m2^7,2′-OGpp-triazole-C2H4OppG were incubated in sealed vials at 20 μM and at room temperature in four different buffers: 0.1 M formate buffer pH 3.0, 0.1 M acetate buffer pH 5.0, 0.1 M HEPES pH 7.0 and 0.1 M borate buffer pH 9.0. […] The starting compound peak area was determined for each time-point and % of remaining cap was calculated in reference to the time-point 0 h.

Compound | hydrolysis in D2O [1] [%] | Translation efficiency [2] | Capping efficiency (SP6 RNA polymerase) [%] | % of remaining cap, Bufor pH 7, 4 h [3] [%] | % of remaining cap, Bufor pH 7, 24 h [3] [%] | % of remaining cap, Bufor pH 5, 4 h [3] [%] | % of remaining cap, Bufor pH 5, 24 h [3] [%] | % of remaining cap, Bufor pH 9, 4 h [3] [%] | % of remaining cap, Bufor pH 9, 24 h [3] [%] | % of remaining cap, Bufor pH 3, 4 h [3] [%] | % of remaining cap, Bufor pH 3, 24 h [3] [%]
[N-]=[N+]=NCCNP(=O)(O)OP(=O)(O)OC[C@H]1O[C@@H](n2cnc3c(=O)[nH]c(N)nc32)[C@H](O)[C@@H]1O [GppNHC2H4N3, N-(2-azidoethyl) β-phosphoramidate guanosine diphosphate ammonium salt] | 15 |  |  |  |  |  |  |  |  |  | 
Nc1nc2c(ncn2[C@@H]2O[C@H](COP(=O)(O)OP(=O)(O)OP(=O)(O)OC[C@H]3O[C@@H](n4cnc5c(=O)[nH]c(N)nc54)[C@H](O)[C@@H]3O)[C@@H](O)[C@H]2O)c(=O)[nH]1 [GpppG, reference compound] |  | 0.058 ± 0.008 | 92 |  |  |  |  |  |  |  | 
COC1C(O)[C@@H](COP(=O)(O)OP(=O)(O)OP(=O)([O-])c2cn(CCNP(=O)(O)OP(=O)(O)OC[C@H]3O[C@@H](n4cnc5c(=O)[nH]c(N)nc54)C(O)C3O)nn2)O[C@H]1n1c[n+](C)c2c(=O)[nH]c(N)nc21 (stereo partly shown) [m2^7,2′-OGppptC2H4NHppG, m2^7,2′-OGppp-triazole-C2H4NHppG] |  | 2.226 ± 0.399 | 43.0 | 0 | 0 | 0 | 0 | 0.5 | 3.0 | 19.0 | 72.9
COC1C(O)[C@@H](COP(=O)(O)OP(=O)(O)OP(=O)([O-])c2cn(CCOP(=O)(O)OC[C@H]3O[C@@H](n4cnc5c(=O)[nH]c(N)nc54)C(O)C3O)nn2)O[C@H]1n1c[n+](C)c2c(=O)[nH]c(N)nc21 (stereo partly shown) [m2^7,2′-OGppptC2H4OpG, m2^7,2′-OGppp-triazole-C2H4OpG] |  | 2.773 ± 0.293 | 47.6 | 0 | 0 | 0 | 0 | 0.1 | 1.2 | 0 | 0
COC1C(O)[C@@H](COP(=O)(O)OP(=O)(O)OP(=O)([O-])c2cn(CCOP(=O)(O)OP(=O)(O)OC[C@H]3O[C@@H](n4cnc5c(=O)[nH]c(N)nc54)C(O)C3O)nn2)O[C@H]1n1c[n+](C)c2c(=O)[nH]c(N)nc21 (stereo partly shown) [m2^7,2′-OGppptC2H4OppG, m2^7,2′-OGppp-triazole-C2H4OppG] |  | 1.749 ± 0.263 | 38.0 | 0 | 0 | 0 | 0 |  |  | 0 | 0
COC1C(O)[C@@H](COP(=O)(O)OP(=O)([O-])c2cn(CCOP(=O)(O)OP(=O)(O)OC[C@H]3O[C@@H](n4cnc5c(=O)[nH]c(N)nc54)C(O)C3O)nn2)O[C@H]1n1c[n+](C)c2c(=O)[nH]c(N)nc21 (stereo partly shown) [m2^7,2′-OGpptC2H4OppG, m2^7,2′-OGpp-triazole-C2H4OppG] |  | 1.675 ± 0.168 | 44.2 |  |  |  |  |  |  |  | 
C[n+]1cn([C@@H]2O[C@H](COP(=O)(O)NCCn3cc(CP(=O)(O)OP(=O)([O-])OC[C@H]4O[C@@H](n5cnc6c(=O)[nH]c(N)nc65)C(O)C4O)nn3)C(O)C2O)c2nc(N)[nH]c(=O)c21 (stereo partly shown) [m^7GpNHC2H4tCH2ppG, m^7GpNHC2H4-triazole-CH2ppG] | 11 | 0.085 ± 0.017 | 47 |  |  |  |  |  |  |  | 
C[n+]1cn([C@@H]2O[C@H](COP(=O)(O)NCCn3cc(CP(=O)(O)OP(=O)([O-])OP(=O)(O)OC[C@H]4O[C@@H](n5cnc6c(=O)[nH]c(N)nc65)C(O)C4O)nn3)C(O)C2O)c2nc(N)[nH]c(=O)c21 (stereo partly shown) [m^7GpNHC2H4tCH2pppG, m^7GpNHC2H4-triazole-CH2pppG] | 7 | 0.060 ± 0.004 | 62 |  |  |  |  |  |  |  | 
C[n+]1cn([C@@H]2O[C@H](COP(=O)(O)NCCn3cc(P(=O)([O-])OP(=O)(O)OC[C@H]4O[C@@H](n5cnc6c(=O)[nH]c(N)nc65)C(O)C4O)nn3)C(O)C2O)c2nc(N)[nH]c(=O)c21 (stereo partly shown) [m^7GpNHC2H4tppG, m^7GpNHC2H4-triazole-ppG] | 14 | 0.075 ± 0.009 | 57 |  |  |  |  |  |  |  | 
C[n+]1cn([C@@H]2O[C@H](COP(=O)(O)OP(=O)(O)CCc3cn(CCNP(=O)(O)OP(=O)([O-])OC[C@H]4O[C@@H](n5cnc6c(=O)[nH]c(N)nc65)[C@@H](O)C4O)nn3)[C@H](O)C2O)c2nc(N)[nH]c(=O)c21 (stereo partly shown) [m^7GppC2H4tC2H4NHppG, m^7GppC2H4-triazole-C2H4NHppG] | 10 | 0.085 ± 0.017 | 48.8 |  |  |  |  |  |  |  | 
C[n+]1cn([C@@H]2O[C@H](COP(=O)([O-])OP(=O)(O)Cc3cn(CCNP(=O)(O)OC[C@H]4O[C@@H](n5cnc6c(=O)[nH]c(N)nc65)C(O)C4O)nn3)C(O)C2O)c2nc(N)[nH]c(=O)c21 (stereo partly shown) [m^7GppCH2tC2H4NHpG, m^7GppCH2-triazole-C2H4NHpG] |  | 0.155 ± 0.019 | 54 |  |  |  |  |  |  |  | 
C[n+]1cn([C@@H]2O[C@H](COP(=O)(O)OP(=O)([O-])c3cn(CCNP(=O)(O)OC[C@H]4O[C@@H](n5cnc6c(=O)[nH]c(N)nc65)C(O)C4O)nn3)C(O)C2O)c2nc(N)[nH]c(=O)c21 (stereo partly shown) [m^7GpptC2H4NHpG, m^7Gpp-triazole-C2H4NHpG] |  | 0.50 ± 0.06 | 56.8 |  |  |  |  |  |  |  | 
